Experimental data: the supplement of paper PMC10307832

The cell lines below were run with COc1cc(-c2nn([C@H]3CC[C@H](N4CCN(C(C)=O)CC4)CC3)c3ncnc(N)c23)ccc1NC(=O)c1cc2ccccc2n1C + COc1cc2c(Oc3ccc(NC(=O)C4(C(=O)Nc5ccc(F)cc5)CC4)cc3F)ccnc2cc1OCCCN1CCOCC1 [Foretinib] (partner 0.25 µM) (assay: relative viability (nuclei count vs DMSO), 5 days (fraction); higher = more cells survive). Conditions: first compound 0.0128 µM.
How it was run: (§1)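 Medians of duplicate plates are given as relative viability. That measure is the nuclei count in treated wells divided by the count in vehicle wells. Counts were taken on 4× images of lung cancer cell lines in 1536-well plates, 5 days after pin-tool dosing the day after seeding with one drug alone or a fixed anchor-drug dose plus five library-drug doses (not always all listed) in √10 steps.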

Cell Line	relative viability
NCI-H1355	1
NCI-H3122	1.02

Same assay, conditions: first compound 0.04048 µM

Cell Line	relative viability
LOU-NH91	0.99
ChaGo-K-1	0.897
NCI-H2170	1.01
NCI-H2405	0.855
HOP-62	1.12
LU99A	0.895
BEN	0.642
HARA	0.846
HCC-78	0.733
NCI-H322M	1.11
LCLC-97TM1	0.692
NCI-H2009	1.12
NCI-H441	1.29
NCI-H661	1.13
NCI-H1734	0.683
NCI-H460	1.13
NCI-H2347	0.781
SK-LU-1	0.798
NCI-H1395	0.95
201T	1.19
NCI-H1915	1.03
HCC-827	0.943
LXF-289	0.962
NCI-H23	1.03
NCI-H647	1.44
NCI-H1651	0.886
NCI-H1355	0.958

Same assay, conditions: first compound 0.128 µM

Cell Line	relative viability
LOU-NH91	0.968
ChaGo-K-1	0.892
NCI-H2170	0.991
NCI-H2405	1.04
HOP-62	1.07
LU99A	0.857
BEN	0.602
HARA	0.687
HCC-78	0.467
NCI-H322M	0.878
LCLC-97TM1	0.864
NCI-H2009	1.22
A-427	0.988
NCI-H441	0.998
NCI-H661	1.01
NCI-H1734	0.897
NCI-H460	0.916
NCI-H2347	0.864
SK-LU-1	0.691
NCI-H1395	0.9
201T	0.859
NCI-H1915	1.06
HCC-827	1.02
LXF-289	0.986
NCI-H23	0.797
NCI-H647	1.21
NCI-H1651	0.969
EPLC-272H	0.705
NCI-H1355	0.988
NCI-H3122	0.877

Same assay, conditions: first compound 1.28 µM

Cell Line	relative viability
LOU-NH91	0.922
ChaGo-K-1	0.742
NCI-H2170	0.97
NCI-H2405	0.535
HOP-62	1.03
LU99A	0.821
BEN	0.45
HARA	0.332
HCC-78	0.376
NCI-H322M	0.785
LCLC-97TM1	0.887
NCI-H2009	0.896
A-427	0.884
NCI-H441	0.89
NCI-H661	1.03
NCI-H1734	0.536
NCI-H460	0.975
NCI-H2347	0.834
SK-LU-1	0.376
NCI-H1395	0.72
201T	0.594
NCI-H1915	0.844
HCC-827	0.756
LXF-289	1.03
NCI-H23	0.651
NCI-H647	0.806
NCI-H1651	0.692
EPLC-272H	0.37
NCI-H1355	0.883
NCI-H3122	0.777

The cell lines below were run with COc1cc(-c2nn([C@H]3CC[C@H](N4CCN(C(C)=O)CC4)CC3)c3ncnc(N)c23)ccc1NC(=O)c1cc2ccccc2n1C + CS(=O)(=O)N1CCN(Cc2cc3nc(-c4cccc5[nH]ncc45)nc(N4CCOCC4)c3s2)CC1 [Pictilisib] (partner 1 µM) in the same assay as above. Conditions: first compound 0.0128 µM.
How it was run: as §1

Cell Line	relative viability
LOU-NH91	0.517
ChaGo-K-1	0.66
NCI-H2170	0.297
NCI-H2405	0.422
HOP-62	0.831
LU99A	0.357
BEN	0.559
HARA	0.454
HCC-78	0.23
NCI-H322M	0.521
LCLC-97TM1	0.229
NCI-H2009	0.783
A-427	0.652
NCI-H441	0.551
NCI-H661	0.39
NCI-H1734	0.47
NCI-H460	0.164
NCI-H2347	0.754
SK-LU-1	0.54
NCI-H1395	0.578
201T	0.729
NCI-H1915	0.968
HCC-827	1.1
LXF-289	0.827
NCI-H23	0.36
NCI-H647	0.41
NCI-H1651	0.489
EPLC-272H	0.369
NCI-H1355	0.584
NCI-H3122	0.552

Same assay, conditions: first compound 0.04048 µM

Cell Line	relative viability
LOU-NH91	0.555
ChaGo-K-1	0.669
NCI-H2170	0.353
NCI-H2405	0.26
HOP-62	0.285
LU99A	0.385
BEN	0.54
HARA	0.395
HCC-78	0.181
NCI-H322M	0.449
LCLC-97TM1	0.107
NCI-H2009	0.303
A-427	0.127
NCI-H441	0.43
NCI-H661	0.344
NCI-H1734	0.38
NCI-H460	0.314
NCI-H2347	0.579
SK-LU-1	0.488
NCI-H1395	0.711
201T	0.639
NCI-H1915	0.532
HCC-827	1.22
LXF-289	0.586
NCI-H23	0.298
NCI-H647	0.456
NCI-H1651	0.525
EPLC-272H	0.258
NCI-H1355	0.295

Same assay, conditions: first compound 0.128 µM

Cell Line	relative viability
LOU-NH91	0.511
